The results in this text go back to patent US7790733B2, “8-alkoxy or cycloalkoxy-4-methyl-3,4-dihydro-quinazolin-2-ylamines” (Hoffman-La Roche Inc., priority 2005, dated 2010).

The test deals with T1, recombinant human 5-HT5A receptor (Homo sapiens, UniProt P47898).
T1 construct: expressed in transfected cells; host or cells: Human Embryonic Kidney-EBNA (HEK-EBNA) cells, transient cDNA expression, membranes
T1 sequence (P47898 whole entry): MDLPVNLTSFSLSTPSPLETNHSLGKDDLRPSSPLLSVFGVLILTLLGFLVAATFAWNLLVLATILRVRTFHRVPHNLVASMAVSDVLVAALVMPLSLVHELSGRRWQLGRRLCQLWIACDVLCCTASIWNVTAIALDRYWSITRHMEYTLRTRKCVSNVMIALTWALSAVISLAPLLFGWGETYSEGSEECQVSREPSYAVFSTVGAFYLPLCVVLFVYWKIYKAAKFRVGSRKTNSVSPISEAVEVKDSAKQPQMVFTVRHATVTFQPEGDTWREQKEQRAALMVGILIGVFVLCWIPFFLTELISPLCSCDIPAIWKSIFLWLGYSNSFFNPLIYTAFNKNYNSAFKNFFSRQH
The test can be described thus: [3H]LSD radioligand binding assay, recombinant human 5-HT5A receptor in HEK-EBNA cell membranes. The conditions noted are these: [3H]LSD approx. 1 nM; membranes from HEK-EBNA cells transiently expressing 5-HT5A; Ki from IC50 by Cheng-Prussoff equation. As to the method: A [^3H]LSD radioligand binding assay was used to determine the affinity of the compounds for the recombinant human 5-HT5A receptor, in membranes from transiently (cDNA) expressed 5-HT5A receptors in Human Embryonic Kidney-EBNA (HEK-EBNA) cells. Assay buffer consisted of Tris (50 mM) buffer containing 1 mM EGTA, 10 mM MgCl2 (pH 7.4) and 10 μM pargyline. The binding assay was carried out in 96-well-plates in the presence of [^3H]LSD (approximately 1 nM), approximately 2 μg/well of membrane protein, and 0.5 mg of Ysi-poly-1-lysine SPA beads in a final volume of 200 μl of buffer. Non-specific binding was defined using methiothepin 2 μM. Compounds were tested at 10 concentrations. All assays were conducted in duplicate and repeated at least two times. Assay plates were incubated for 120 min at room temperature before centrifugation. Bound ligand was determined using a Packard Topcount scintillation counter. IC50 values were calculated using a non-linear curve fitting program and Ki values calculated using the Cheng-Prussoff equation. The activity of representative compounds (≦0.05 μM) is described in the table below: […]
For the compound `CNC1=Nc2c(OC)cc(Cl)c(C)c2C(C)N1` (centres unmarked) [Example 20, (6-Chloro-8-methoxy-4,5-dimethyl-3,4-dihydro-quinazolin-2-yl)-methyl-amine], the Ki is 0.0426 µM. `CC1NC(NCC(F)F)=Nc2c(OC3CCCC3)cccc21` (centres unmarked) [Example 17, (8-Cyclopentyloxy-4-methyl-3,4-dihydro-quinazolin-2-yl)-(2,2-difluoro-ethyl)-amine]: the Ki amounted to 0.0224 µM. As to `CC(C)Oc1cccc2c1N=C(NCC(F)F)NC2C` (centres unmarked) [Example 4, (2,2-Difluoro-ethyl)-(8-isopropoxy-4-methyl-3,4-dihydro-quinazolin-2-yl)-amine], the Ki was found to be 0.0232 µM. As to `CNC1=Nc2c(OC3CCCC3)cccc2C(C)N1` (centres unmarked) [Example 16, (8-Cyclopentyloxy-4-methyl-3,4-dihydro-quinazolin-2-yl)-methyl-amine], the inhibition constant (Ki) turned out to be 0.0162 µM.

Regarding `CNC1=Nc2c(OC)cccc2C(C)N1` (centres unmarked) [Example 9, (8-Methoxy-4-methyl-3,4-dihydro-quinazolin-2-yl)-methyl-amine], the inhibition constant Ki turned out to be 0.0384 µM. The figure for `CNC1=Nc2c(OC(C)C)cccc2C(C)N1` (centres unmarked) [Example 5, (8-Isopropoxy-4-methyl-3,4-dihydro-quinazolin-2-yl)-methyl-amine] is 0.0254 µM. For `CCOc1cccc2c1N=C(NC)NC2C` (centres unmarked) [Example 7, (8-Ethoxy-4-methyl-3,4-dihydro-quinazolin-2-yl)-methyl-amine] the value was 0.0345 µM; for `COc1cccc2c1N=C(NCC(F)F)NC2C` (centres unmarked) [Example 6, (2,2-Difluoro-ethyl)-(8-methoxy-4-methyl-3,4-dihydro-quinazolin-2-yl)-amine], 0.0282 µM; for `COc1cccc2c1N=C(N)NC2C` (centres unmarked) [Example 1, 8-Methoxy-4-methyl-3,4-dihydro-quinazolin-2-ylamine], 0.00634 µM. Turning to `CC(C)Oc1cccc2c1N=C(N)NC2C` (centres unmarked) [Example 2, 8-Isopropoxy-4-methyl-3,4-dihydro-quinazolin-2-ylamine], the Ki worked out at 0.00996 µM.

Turning to `COc1cc(Cl)c(C)c2c1N=C(N)NC2C` (centres unmarked) [Example 18, 6-Chloro-8-methoxy-4,5-dimethyl-3,4-dihydro-quinazolin-2-ylamine], the Ki was found to be 0.0047 µM. Take `CCOc1cccc2c1N=C(N)NC2C` (centres unmarked) [Example 8, 8-Ethoxy-4-methyl-3,4-dihydro-quinazolin-2-ylamine]: the inhibition constant (Ki) turned out to be 0.0372 µM. For `COc1cc(Cl)c(C)c2c1N=C(NC1CCC1)NC2C` (centres unmarked) [Example 19, (6-Chloro-8-methoxy-4,5-dimethyl-3,4-dihydro-quinazolin-2-yl)-cyclobutyl-amine] the value was 0.0475 µM; for `CCOc1cccc2c1N=C(NCC(F)F)NC2C` (centres unmarked) [Example 3, (2,2-Difluoro-ethyl)-(8-ethoxy-4-methyl-3,4-dihydro-quinazolin-2-yl)-amine], 0.0141 µM.

The Ki is a dissociation constant, usually derived from enzyme kinetics or from competition with a known ligand.
